The target of one experiment is CDK2 (Homo sapiens, UniProt P24941). Briefly: CDK2 inhibition (IC50). In kind it is biochemical.
Another experiment deals with CDK12/CyclinK (Homo sapiens, UniProt Q9NYV4). Briefly: CDK12/CyclinK inhibition (IC50). The format is biochemical.
The next experiment has as its target T1, haspin (Homo sapiens, UniProt Q8TF76).
T1 sequence (Q8TF76 1-798): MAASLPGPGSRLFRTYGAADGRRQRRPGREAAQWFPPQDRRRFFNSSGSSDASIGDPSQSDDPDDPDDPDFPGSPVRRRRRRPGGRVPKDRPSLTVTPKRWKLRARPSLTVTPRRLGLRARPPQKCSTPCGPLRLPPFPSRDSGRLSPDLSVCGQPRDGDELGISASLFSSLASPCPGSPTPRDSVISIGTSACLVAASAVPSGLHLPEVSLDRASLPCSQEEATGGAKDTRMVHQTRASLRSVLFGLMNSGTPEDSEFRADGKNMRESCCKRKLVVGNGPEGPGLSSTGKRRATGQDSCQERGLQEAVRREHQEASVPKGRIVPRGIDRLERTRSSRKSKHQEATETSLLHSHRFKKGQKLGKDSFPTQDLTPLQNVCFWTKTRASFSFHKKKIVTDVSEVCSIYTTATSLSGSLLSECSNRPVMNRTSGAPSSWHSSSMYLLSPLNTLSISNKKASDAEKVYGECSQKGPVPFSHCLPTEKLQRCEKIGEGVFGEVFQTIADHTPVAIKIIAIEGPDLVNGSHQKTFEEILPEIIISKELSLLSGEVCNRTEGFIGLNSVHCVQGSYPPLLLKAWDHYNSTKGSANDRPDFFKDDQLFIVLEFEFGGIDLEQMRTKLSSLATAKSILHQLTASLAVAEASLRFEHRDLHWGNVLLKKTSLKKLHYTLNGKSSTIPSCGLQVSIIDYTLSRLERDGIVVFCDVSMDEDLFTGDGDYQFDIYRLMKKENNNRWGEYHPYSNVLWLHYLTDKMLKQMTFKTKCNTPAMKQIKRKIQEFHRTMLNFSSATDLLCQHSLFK
Nature of the experiment: ADP Glo Kinase Assay, haspin, 50 nM inhibitor. To be noted: 50 nM inhibitor conc.; means of triplicates; read-out: Percent Inhibition (%) Haspin. The format is biochemical. As for the experimental part: (§1) With the amide kinase inhibitor library established, kinase inhibition and AML cell line (Molm-14, which harbors FLT3-ITD) growth inhibition were analyzed (Table 1). More specifically, Haspin and FLT3 inhibition were evaluated in-house via ADP Glo Kinase Assay (Promega, Madison, WI). […] Values reported are means of triplicates.
(§2) Briefly, the ADP-Glo Kinase Assay Kit was used to determine inhibition of haspin. Kinase Buffer (SignalChem Cat #K01-09; 25 mM MOPS, pH 7.2, 12.5 mM β-glycerol-phosphate, 25 mM MgCl2, 2 mM EDTA) was supplemented with dithiothreitol (DTT) (0.2 mM) and bovine serum albumin (BSA) (40 μg/mL) immediately prior to use. Reaction volumes of 5 μL containing 9 ng/μL kinase, 10 μM ATP, 50 nM inhibitor, and the appropriate peptide substrate (20 μM) were incubated for 3 hours, and then quenched with an equal volume (5 μL) of GLO reagent. After 40 minutes, 10 μL DET reagent was added and incubated for 1 hour before visualization on a Cytation™ 5 Cell Imaging Multi-Mode Reader (BioTek).
(In general: In ADP-Glo the light output rises with the ADP produced.)

The next experiment addresses T2, FLT3 (Homo sapiens, UniProt P36888).
T2 sequence (P36888 27-993): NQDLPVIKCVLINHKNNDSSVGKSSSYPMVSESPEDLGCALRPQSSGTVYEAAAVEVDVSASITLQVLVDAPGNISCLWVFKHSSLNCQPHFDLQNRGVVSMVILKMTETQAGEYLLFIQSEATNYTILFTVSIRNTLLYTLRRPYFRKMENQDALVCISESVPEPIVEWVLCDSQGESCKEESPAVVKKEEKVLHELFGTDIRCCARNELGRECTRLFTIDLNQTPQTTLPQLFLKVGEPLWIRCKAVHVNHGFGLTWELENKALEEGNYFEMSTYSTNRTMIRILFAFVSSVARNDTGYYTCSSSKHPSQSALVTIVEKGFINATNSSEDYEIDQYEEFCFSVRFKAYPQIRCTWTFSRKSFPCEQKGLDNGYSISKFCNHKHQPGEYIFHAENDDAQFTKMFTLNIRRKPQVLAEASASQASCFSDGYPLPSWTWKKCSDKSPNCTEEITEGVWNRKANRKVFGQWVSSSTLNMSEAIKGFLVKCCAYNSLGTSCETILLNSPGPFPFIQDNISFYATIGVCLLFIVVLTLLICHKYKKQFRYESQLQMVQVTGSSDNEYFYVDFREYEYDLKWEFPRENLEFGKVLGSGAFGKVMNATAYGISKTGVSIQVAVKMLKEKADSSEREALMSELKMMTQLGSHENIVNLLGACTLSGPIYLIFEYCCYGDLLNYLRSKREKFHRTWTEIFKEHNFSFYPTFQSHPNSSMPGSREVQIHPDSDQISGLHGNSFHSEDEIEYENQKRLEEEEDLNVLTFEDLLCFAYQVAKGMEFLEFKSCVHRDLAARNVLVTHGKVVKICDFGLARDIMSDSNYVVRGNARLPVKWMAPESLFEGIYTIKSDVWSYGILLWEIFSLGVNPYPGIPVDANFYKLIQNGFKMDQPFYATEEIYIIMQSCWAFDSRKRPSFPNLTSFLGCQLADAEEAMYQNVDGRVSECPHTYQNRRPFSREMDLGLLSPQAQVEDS
Briefly: ADP Glo Kinase Assay, FLT3, 50 nM inhibitor. The format is biochemical. To be noted: 50 nM inhibitor conc.; means of triplicates; read-out: Percent Inhibition (%) FLT3. As for the experimental part:
as §1, §2

In the next experiment the test system is Molm-14 cells (FLT3-ITD). Briefly: AML cell line growth inhibition (CellTiter-Blue), 50 nM. In kind it is cell-based. To be noted: Homo sapiens, 50 nM inhibitor conc., means of triplicates, read-out: Percent Inhibition (%) Molm-14 growth. As for the experimental part:
as §1
More specifically, cells were cultured to confluence in RPMI medium supplemented with 10% fetal bovine serum and 1× Penicillin-Streptomycin (Gibco™). Cells were plated at 5,000 cells/well in 96 well plates. After 24-hour incubation at 37° C. in a 5% CO2 incubator, compounds diluted in the same media were added to the indicated final concentration and allowed to incubate at 37° C. in a 5% CO2 incubator for 72 hours. Viability was determined using CellTiter-Blue® Cell Viability Assay (Promega, Madison, WI) with absorbance readings at 570 nm performed on a Cytation™ 5 Cell Imaging Multi-Mode Reader (BioTek) 3 hours after addition. Appropriate vehicle and cell-free controls were included. GI50 readings were confirmed by two scientists on two separate days.

The subject of experiment [1] is histone H3 (Thr3) phosphorylation by haspin. Briefly: Western blot, histone H3 (Thr3) phosphorylation by haspin in Molm-14 cells. In kind it is cell-based, human. To be noted: 24 hours, HSK205 5, 20 or 100 nM, gilteritinib 100 nM. As for the experimental part:
Whether Compound HSK205 does indeed inhibit haspin in AML cells was then evaluated, and immunoblotting was performed to confirm inhibition of histone H3 (Thr3)phosphorylation by haspin (FIG. 13A). […] The samples were subsequently analyzed for the phosphorylation of histone H3 (Thr3).
Acute myeloid leukemia cells (Molm-14) were incubated with various concentrations of compound as specified. Cells were collected and lysed, and protein concentrations were quantified relative to BSA standards. After protein denaturation, proteins were separated via SDS-PAGE electrophoresis and transferred to NC membranes. After blocking, overnight incubation with specific primary antibodies, and room temperature incubation for 2 hours with peroxidase-conjugated secondary antibodies, peroxidase activity was detected with SuperSignal West Pico reagents (Thermo Scientific) using a CCD camera LAS-4000 (Fujifilm). Bands were normalized using housekeeping gene, Actin. Values reported represent the means of triplicates and error bars represent SD. All specific antibodies were purchased from Cell Signaling.
(In western blotting, separated proteins are transferred to a membrane and probed.)

Chain of CDK12/CyclinK (Q9NYV4 whole entry): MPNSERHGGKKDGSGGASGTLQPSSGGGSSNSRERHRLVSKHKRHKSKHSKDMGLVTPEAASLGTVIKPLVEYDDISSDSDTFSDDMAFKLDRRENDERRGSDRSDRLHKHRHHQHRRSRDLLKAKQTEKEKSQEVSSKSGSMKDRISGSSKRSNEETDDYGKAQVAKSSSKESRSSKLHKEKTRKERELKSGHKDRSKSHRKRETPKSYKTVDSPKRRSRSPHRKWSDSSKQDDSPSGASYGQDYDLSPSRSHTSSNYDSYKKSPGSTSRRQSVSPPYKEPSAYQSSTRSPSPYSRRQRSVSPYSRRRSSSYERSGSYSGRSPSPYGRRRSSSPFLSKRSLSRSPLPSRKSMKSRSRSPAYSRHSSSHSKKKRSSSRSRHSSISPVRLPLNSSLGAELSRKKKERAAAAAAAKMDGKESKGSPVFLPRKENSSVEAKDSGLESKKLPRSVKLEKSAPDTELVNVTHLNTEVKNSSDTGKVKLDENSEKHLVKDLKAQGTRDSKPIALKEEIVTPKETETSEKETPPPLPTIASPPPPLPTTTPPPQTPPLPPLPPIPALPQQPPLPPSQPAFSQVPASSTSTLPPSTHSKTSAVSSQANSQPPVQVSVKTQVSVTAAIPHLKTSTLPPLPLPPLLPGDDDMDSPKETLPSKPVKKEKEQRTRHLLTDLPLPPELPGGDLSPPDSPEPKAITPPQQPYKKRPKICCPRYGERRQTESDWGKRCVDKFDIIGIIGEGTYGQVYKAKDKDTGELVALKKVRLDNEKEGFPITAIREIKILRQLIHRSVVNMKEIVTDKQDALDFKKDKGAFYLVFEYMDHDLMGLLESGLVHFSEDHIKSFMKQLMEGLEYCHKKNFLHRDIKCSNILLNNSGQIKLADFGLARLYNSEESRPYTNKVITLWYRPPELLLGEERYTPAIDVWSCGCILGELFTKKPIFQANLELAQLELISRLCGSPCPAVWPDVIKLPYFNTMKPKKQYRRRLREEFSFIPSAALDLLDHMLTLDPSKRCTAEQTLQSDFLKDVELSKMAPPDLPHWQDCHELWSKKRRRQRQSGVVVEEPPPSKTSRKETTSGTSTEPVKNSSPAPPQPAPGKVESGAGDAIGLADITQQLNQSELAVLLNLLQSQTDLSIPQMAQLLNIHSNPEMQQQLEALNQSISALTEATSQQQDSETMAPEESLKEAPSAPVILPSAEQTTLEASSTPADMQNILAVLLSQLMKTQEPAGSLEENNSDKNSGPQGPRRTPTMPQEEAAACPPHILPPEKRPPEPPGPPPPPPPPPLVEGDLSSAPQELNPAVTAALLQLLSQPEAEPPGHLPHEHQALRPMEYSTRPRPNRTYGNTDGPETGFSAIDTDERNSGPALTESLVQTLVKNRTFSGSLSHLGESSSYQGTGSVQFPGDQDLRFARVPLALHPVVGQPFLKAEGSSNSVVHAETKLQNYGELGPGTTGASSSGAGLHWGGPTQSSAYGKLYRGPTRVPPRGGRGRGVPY
Chain of CDK12/CyclinK (O75909 whole entry partner): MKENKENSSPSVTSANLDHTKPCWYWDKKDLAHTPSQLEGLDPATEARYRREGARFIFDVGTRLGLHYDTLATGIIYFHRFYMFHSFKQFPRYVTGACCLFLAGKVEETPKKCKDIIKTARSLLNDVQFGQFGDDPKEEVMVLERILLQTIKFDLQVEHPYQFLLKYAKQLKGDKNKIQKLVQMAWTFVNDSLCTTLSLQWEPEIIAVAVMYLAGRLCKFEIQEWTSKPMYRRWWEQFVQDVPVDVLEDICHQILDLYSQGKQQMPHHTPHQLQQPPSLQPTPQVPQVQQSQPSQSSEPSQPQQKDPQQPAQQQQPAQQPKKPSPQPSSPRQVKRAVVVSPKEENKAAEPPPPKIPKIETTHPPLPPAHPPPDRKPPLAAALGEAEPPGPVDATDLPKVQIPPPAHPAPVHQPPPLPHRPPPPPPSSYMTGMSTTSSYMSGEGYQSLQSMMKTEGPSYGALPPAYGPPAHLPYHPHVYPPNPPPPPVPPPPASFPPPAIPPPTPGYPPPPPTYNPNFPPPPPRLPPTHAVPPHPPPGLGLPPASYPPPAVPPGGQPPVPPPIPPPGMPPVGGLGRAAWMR

A word on the IC50: it is the point on the concentration scale where inhibition reaches its midpoint. Read a low IC50 as greater potency. For the compound `CN(C)CCNC(=O)c1ccc(-c2nc3ccc4[nH]ncc4c3c3c2CCCC3)cc1` [Compound HSH2177, N-(2-(dimethylamino)ethyl)-4-(8,9,10,11-tetrahydro-3H-pyrazolo[4,3-a]phenanthridin-7-yl)benzamide], the IC50 against CDK2 is 7 nM; at CDK12/CyclinK, 27 nM.

By inhibition is commonly meant the percentage by which the read-out fell short of the control. Turning to `CCc1nc(C(N)=O)c(Nc2ccc(N3CCC(N4CCN(C)CC4)CC3)c(OC)c2)nc1NC1CCOCC1` [gilteritinib, reference compound], the inhibition at 0.05 µM was found to be 11% on haspin, 93% at FLT3 and 87% in the experiment with Molm-14 cells (FLT3-ITD). For the same compound, in experiment [1], the “phosphorylation of histone H3 (Thr3)” value was “did not display haspin inhibition”.

The values above are taken from patent publication US20250320203A1, “4-(3H-PYRAZOLO[4,3-F]QUINOLIN-7-YL)-N-(2-(DIMETHYLAMINO)ETHYL)BENZAMIDE- OR HYDROXAMIC ACID COMPOUNDS, COMPOSITIONS, AND METHODS OF USE” (Purdue Research Foundation, priority 2022, published 2025).
